From ChEMBL document CHEMBL1909046, “DrugMatrix in vitro pharmacology data” come the findings set out here.

The target of one series is Melanocortin receptor 3 (Homo sapiens, UniProt P41968). It is filed as cell membranes, HEK293, Membrane. The note with it: hek293. Further: in other assays of this panel Not Active means under 50% inhibition at 10 µM.
Another series deals with Cytochrome P450 2E1 (Homo sapiens, UniProt P05181). As to conditions: bti-tn-5b1-4.
Series [1] is described as follows: DRUGMATRIX: GABAA, Flunitrazepam, Central radioligand binding (ligand: [3H] Flunitrazepam). The class given is cell membranes, Rattus norvegicus, Wistar, Brain, Membrane. The note with it: Not Active = under 50% inhibition at 10 µM.
In series [2] the target is T1, Alpha-1B adrenergic receptor (Rattus norvegicus, UniProt P15823).
T1 sequence (P15823 whole entry): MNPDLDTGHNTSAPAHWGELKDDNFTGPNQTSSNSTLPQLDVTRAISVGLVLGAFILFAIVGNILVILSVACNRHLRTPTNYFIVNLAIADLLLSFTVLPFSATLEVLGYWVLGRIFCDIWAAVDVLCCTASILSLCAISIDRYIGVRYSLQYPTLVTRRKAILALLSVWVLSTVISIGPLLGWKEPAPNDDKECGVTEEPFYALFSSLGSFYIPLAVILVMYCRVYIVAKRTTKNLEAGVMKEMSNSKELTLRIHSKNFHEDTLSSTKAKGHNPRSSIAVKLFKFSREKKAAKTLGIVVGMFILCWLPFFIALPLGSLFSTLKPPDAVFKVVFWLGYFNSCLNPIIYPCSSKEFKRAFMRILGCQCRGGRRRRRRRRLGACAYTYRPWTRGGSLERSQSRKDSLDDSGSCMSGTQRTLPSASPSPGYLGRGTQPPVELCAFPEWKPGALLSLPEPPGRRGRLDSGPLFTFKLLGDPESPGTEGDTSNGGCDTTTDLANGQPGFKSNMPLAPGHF
Description: DRUGMATRIX: Alpha-1B adrenergic receptor radioligand binding (ligand: prazosin). The class given is cell membranes, Wistar, Liver, Membrane. The note with it: Not Active = under 50% inhibition at 10 µM; for Ki: read-out: Ki.

Series [3] has as its target 5-hydroxytryptamine receptor 6 (Homo sapiens, UniProt P50406). The class given is cell membranes, HeLa, Membrane. Further: in other assays of this panel Not Active means under 50% inhibition at 10 µM.
A further series deals with T2, Thromboxane-A synthase (Homo sapiens, UniProt P24557).
T2 sequence (P24557 whole entry): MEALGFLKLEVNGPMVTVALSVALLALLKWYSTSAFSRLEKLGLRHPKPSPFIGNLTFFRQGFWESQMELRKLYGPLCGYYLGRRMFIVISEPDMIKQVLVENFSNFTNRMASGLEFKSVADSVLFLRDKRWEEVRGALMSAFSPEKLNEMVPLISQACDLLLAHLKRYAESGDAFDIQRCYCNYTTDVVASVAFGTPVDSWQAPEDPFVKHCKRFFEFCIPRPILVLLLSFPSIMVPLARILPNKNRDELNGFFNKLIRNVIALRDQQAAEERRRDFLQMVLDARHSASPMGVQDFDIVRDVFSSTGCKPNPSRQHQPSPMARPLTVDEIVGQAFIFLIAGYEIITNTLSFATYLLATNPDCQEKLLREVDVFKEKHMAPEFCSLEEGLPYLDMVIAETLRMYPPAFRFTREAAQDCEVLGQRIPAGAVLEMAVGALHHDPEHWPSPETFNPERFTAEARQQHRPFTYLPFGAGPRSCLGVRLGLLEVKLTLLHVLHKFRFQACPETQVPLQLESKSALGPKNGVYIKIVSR
Nature of the series: biochemical. It is filed as tissue-based, Platelet.

Series [4] addresses Mitogen-activated protein kinase 3 (Homo sapiens, UniProt P27361). Nature of the series: DRUGMATRIX: Protein Serine/Threonine Kinase, ERK1 enzyme inhibition (substrate: Myelin Basic Protein). The arrangement: species or system Escherichia coli. As to conditions: Not Active = under 50% inhibition at 10 µM.

*1 amine or outer side, *2 acyl side, *3 side chain or, on linkers, in order; H or OH if unused. Where a SMILES comes first, the peptide text is derived from it. Bridges are numbered along the chain shown (N, C = ends). Roman numbers before positions name the chains, in order. [ ]: non-standard residue; d: D form. Actinocin(1to9) = Cc1c2oc3c(C)ccc(C(=O)[*:2])c3nc-2c(C(=O)[*:1])c(N)c1=O; NMeV = CN[C@H](C(=O)O)C(C)C; Sar = CNCC(=O)O

Chain of 5-hydroxytryptamine receptor 6 (P50406 whole entry): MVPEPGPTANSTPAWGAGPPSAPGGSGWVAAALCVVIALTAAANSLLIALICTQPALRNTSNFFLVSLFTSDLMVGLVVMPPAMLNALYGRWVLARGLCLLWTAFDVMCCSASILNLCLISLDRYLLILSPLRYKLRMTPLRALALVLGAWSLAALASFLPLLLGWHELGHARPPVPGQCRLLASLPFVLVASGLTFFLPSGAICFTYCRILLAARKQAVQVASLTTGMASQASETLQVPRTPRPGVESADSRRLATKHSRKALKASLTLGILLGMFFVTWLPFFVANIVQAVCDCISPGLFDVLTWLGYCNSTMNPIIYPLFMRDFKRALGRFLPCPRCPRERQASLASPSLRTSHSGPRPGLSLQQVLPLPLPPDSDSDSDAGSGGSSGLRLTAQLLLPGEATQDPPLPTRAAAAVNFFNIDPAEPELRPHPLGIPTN
Chain of Mitogen-activated protein kinase 3 (P27361 whole entry): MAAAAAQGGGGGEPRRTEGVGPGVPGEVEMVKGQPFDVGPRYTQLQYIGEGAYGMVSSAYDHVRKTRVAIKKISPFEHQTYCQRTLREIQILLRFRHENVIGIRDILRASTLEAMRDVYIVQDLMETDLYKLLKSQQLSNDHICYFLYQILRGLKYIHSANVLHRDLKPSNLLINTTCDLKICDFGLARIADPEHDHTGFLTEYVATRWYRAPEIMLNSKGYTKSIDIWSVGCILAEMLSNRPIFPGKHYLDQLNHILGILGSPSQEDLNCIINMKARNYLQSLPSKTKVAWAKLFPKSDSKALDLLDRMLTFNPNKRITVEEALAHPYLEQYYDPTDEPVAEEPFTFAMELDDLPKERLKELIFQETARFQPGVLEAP
Chain of Melanocortin receptor 3 (P41968 whole entry): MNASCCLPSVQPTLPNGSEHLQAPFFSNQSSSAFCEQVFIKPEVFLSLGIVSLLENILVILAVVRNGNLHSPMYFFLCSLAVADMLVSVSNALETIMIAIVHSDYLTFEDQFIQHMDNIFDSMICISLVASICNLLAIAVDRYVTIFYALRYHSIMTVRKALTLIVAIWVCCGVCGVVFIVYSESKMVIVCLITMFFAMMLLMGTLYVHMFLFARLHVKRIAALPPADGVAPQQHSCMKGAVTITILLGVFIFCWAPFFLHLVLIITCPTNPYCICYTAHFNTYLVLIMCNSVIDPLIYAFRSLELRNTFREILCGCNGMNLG
Chain of Cytochrome P450 2E1 (P05181 whole entry): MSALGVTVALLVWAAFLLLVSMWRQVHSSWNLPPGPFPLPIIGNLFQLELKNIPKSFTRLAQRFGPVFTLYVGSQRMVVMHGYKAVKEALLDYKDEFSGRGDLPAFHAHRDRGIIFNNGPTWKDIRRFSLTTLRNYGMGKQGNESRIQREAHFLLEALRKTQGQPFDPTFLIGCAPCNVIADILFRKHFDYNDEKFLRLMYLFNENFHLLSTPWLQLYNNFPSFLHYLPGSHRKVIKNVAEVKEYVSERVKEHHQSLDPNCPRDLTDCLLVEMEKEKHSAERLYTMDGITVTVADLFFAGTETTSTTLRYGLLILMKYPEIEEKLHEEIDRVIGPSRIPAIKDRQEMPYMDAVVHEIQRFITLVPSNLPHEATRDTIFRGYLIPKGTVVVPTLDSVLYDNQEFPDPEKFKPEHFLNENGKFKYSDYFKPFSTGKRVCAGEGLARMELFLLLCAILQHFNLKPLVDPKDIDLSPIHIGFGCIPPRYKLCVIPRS

As for `CC(C)(Oc1ccc(Cl)cc1)C(=O)O` [CLOFIBRIC ACID], the IC50 entry (at Melanocortin receptor 3; against Cytochrome P450 2E1; in series [1]; in series [2]; in series [3] (hela); against Thromboxane-A synthase (platelet)) was “Not Active” each time. The IC50 (in general, the midpoint of a concentration-inhibition curve) in series [4] is on record as “Not Active”. In addition, the Ki result (on Cytochrome P450 2E1; in series [1]) was “Not Active” in each case.

Take `Cc1cc(C(C#N)c2ccc(Cl)cc2)c(Cl)cc1NC(=O)c1cc(I)cc(I)c1O` (stereo not given) [CLOSANTEL]: the half-inhibitory concentration (IC50) entry against Melanocortin receptor 3 is “Not Active”; against Cytochrome P450 2E1 it was “Not Active”; in series [1], “Not Active”; in series [2], “Not Active”; in series [3] (hela), “Not Active”; at Thromboxane-A synthase (read-out: IC50), 64 nM. For the same compound, the IC50 entry in series [4] was “Not Active”. For the same compound, the inhibition constant (Ki) entry (on Cytochrome P450 2E1; in series [1]) was “Not Active” each time.

On to `Cc1onc(-c2ccccc2Cl)c1C(=O)N[C@@H]1C(=O)N2[C@@H]1SC(C)(C)[C@@H]2C(=O)O` [CLOXACILLIN], for which the IC50 entry (against Melanocortin receptor 3; on Cytochrome P450 2E1; in series [1]; in series [2]; in series [3] (hela); on Thromboxane-A synthase (platelet)) was “Not Active” throughout. The half-inhibitory concentration (IC50) entry in series [4] is given as “Not Active”. In addition, the Ki result (on Cytochrome P450 2E1; in series [1]) was “Not Active” each time.

`CC1CC(OC(=O)C(O)c2ccccc2)CC(C)(C)C1` (stereo not given) [CYCLANDELATE]: the half-maximal inhibitory concentration (IC50) entry (against Melanocortin receptor 3; at Cytochrome P450 2E1; in series [1]; in series [2]; in series [3] (hela); against Thromboxane-A synthase (platelet)) was “Not Active” each time. Besides, the 50% inhibitory concentration (IC50) entry in series [4] is on record as “Not Active”. The Ki result (at Cytochrome P450 2E1; in series [1]) was “Not Active” throughout.

`Cc1c2oc3c(C)ccc(C(=O)N[C@@H]4C(=O)N[C@H](C(C)C)C(=O)N5CCC[C@H]5C(=O)N(C)CC(=O)N(C)[C@@H](C(C)C)C(=O)O[C@@H]4C)c3nc-2c(C(=O)N[C@@H]2C(=O)N[C@H](C(C)C)C(=O)N3CCC[C@H]3C(=O)N(C)CC(=O)N(C)[C@@H](C(C)C)C(=O)O[C@@H]2C)c(N)c1=O` [DACTINOMYCIN] (I: T[dV]P[Sar][NMeV] / II: T[dV]P[Sar][NMeV]; ester I:1-I:C, II:1-II:C; linker I:N-II:N via Actinocin(1to9)): the IC50 result (against Melanocortin receptor 3; at Cytochrome P450 2E1; in series [1]; in series [2]; in series [3] (hela); against Thromboxane-A synthase (platelet)) was “Not Active” each time. Also, the 50% inhibitory concentration (IC50) result in series [4] is given as “Not Active”. The Ki entry (at Cytochrome P450 2E1; in series [1]) was “Not Active” each time.

For `Cc1c(O)c(=O)ccn1C` [DEFERIPRONE], the IC50 entry (on Melanocortin receptor 3; against Cytochrome P450 2E1; in series [1]; in series [2]; in series [3] (hela); at Thromboxane-A synthase (platelet)) was “Not Active” in each case. Also, the half-inhibitory concentration (IC50) entry in series [4] is “Not Active”. Moreover, the Ki entry (on Cytochrome P450 2E1; in series [1]) was “Not Active” in each case.

As for `CNCCCN1c2ccccc2CCc2ccccc21` [DESIPRAMINE], the 50% inhibitory concentration (IC50) result (against Melanocortin receptor 3; against Cytochrome P450 2E1; in series [1]; in series [2]; in series [3] (hela); on Thromboxane-A synthase (platelet)) was “Not Active” each time. Moreover, the IC50 entry in series [4] is reported as “Not Active”. The inhibitory constant (Ki) entry (on Cytochrome P450 2E1; in series [1]) was “Not Active” throughout.

In the case of `O=c1oc2ccccc2c(O)c1Cc1c(O)c2ccccc2oc1=O` [DICUMAROL], the IC50 result (on Melanocortin receptor 3; at Cytochrome P450 2E1; in series [1]; in series [2]; in series [3] (hela); at Thromboxane-A synthase (platelet)) was “Not Active” each time. Also, the IC50 result in series [4] is given as “Not Active”. In addition, the Ki entry (on Cytochrome P450 2E1; in series [1]) was “Not Active” in each case.

For the compound `C[C@H]1O[C@@H](O[C@H]2[C@@H](O)C[C@H](O[C@H]3[C@@H](O)C[C@H](O[C@H]4CC[C@@]5(C)[C@H](CC[C@@H]6[C@@H]5C[C@@H](O)[C@]5(C)[C@@H](C7=CC(=O)OC7)CC[C@]65O)C4)O[C@@H]3C)O[C@@H]2C)C[C@H](O)[C@@H]1O` [DIGOXIN], the IC50 result (at Melanocortin receptor 3; at Cytochrome P450 2E1; in series [1]; in series [2]; in series [3] (hela); against Thromboxane-A synthase (platelet)) was “Not Active” each time. Moreover, the IC50 entry in series [4] is on record as “Not Active”. Moreover, the inhibition constant (Ki) entry (on Cytochrome P450 2E1; in series [1]) was “Not Active” throughout.

`CC(C)[C@@]1(NC(=O)[C@@H]2C[C@@H]3c4cccc5[nH]cc(c45)C[C@H]3N(C)C2)O[C@@]2(O)[C@@H]3CCCN3C(=O)[C@H](Cc3ccccc3)N2C1=O.CS(=O)(=O)O` [DIHYDROERGOCRISTINE MESYLATE]: the IC50 entry was “Not Active” against Melanocortin receptor 3; “Not Active” at Cytochrome P450 2E1; “Not Active” in series [1]; 2.3 nM in series [2] (read-out: IC50); 42 nM in series [3] (read-out: IC50); “Not Active” against Thromboxane-A synthase (platelet). In addition, in series [4], the half-maximal inhibitory concentration (IC50) entry was “Not Active”. The Ki (usually the dissociation constant of the complex between target and ligand, obtained from inhibition or displacement) is “Not Active” at Cytochrome P450 2E1, “Not Active” in series [1], 1.27 nM in series [2] and 19 nM in series [3] (read-out: Ki).

Consider `CC(=O)O[C@@]12CO[C@@H]1C[C@H](O)[C@@]1(C)C(=O)[C@H](O)C3=C(C)[C@@H](OC(=O)[C@H](O)[C@@H](NC(=O)OC(C)(C)C)c4ccccc4)C[C@@](O)([C@@H](OC(=O)c4ccccc4)[C@H]21)C3(C)C.O.O.O` [DOCETAXEL], for which the IC50 result (against Melanocortin receptor 3; against Cytochrome P450 2E1; in series [1]; in series [2]; in series [3] (hela); at Thromboxane-A synthase (platelet)) was “Not Active” in each case. Moreover, the concentration for half-maximal inhibition (IC50) result in series [4] was “Not Active”. Moreover, the Ki entry (on Cytochrome P450 2E1; in series [1]) was “Not Active” in each case.

Take `COc1cc2nc(N3CCN(C(=O)C4COc5ccccc5O4)CC3)nc(N)c2cc1OC` (stereo not given) [DOXAZOSIN]: the 50% inhibitory concentration (IC50) entry at Melanocortin receptor 3 was “Not Active”; against Cytochrome P450 2E1, “Not Active”; in series [1] it was “Not Active”; in series [2] (read-out: IC50), 0.751 nM; in series [3] (hela), “Not Active”; at Thromboxane-A synthase (platelet), “Not Active”. Also, the half-inhibitory concentration (IC50) entry in series [4] is “Not Active”. Also, the values for the inhibition constant Ki result (on Cytochrome P450 2E1; in series [1]; in series [2]) were “Not Active”, “Not Active” and 0.416 nM, respectively.

Take `C[C@H]1c2cccc(O)c2C(=O)C2=C(O)[C@]3(O)C(=O)C(C(N)=O)=C(O)[C@@H](N(C)C)[C@@H]3[C@@H](O)[C@@H]21.O` [DOXYCYCLINE]: the half-maximal inhibitory concentration (IC50) entry (against Melanocortin receptor 3; at Cytochrome P450 2E1; in series [1]; in series [2]; in series [3] (hela); against Thromboxane-A synthase (platelet)) was “Not Active” each time. Further, the 50% inhibitory concentration (IC50) entry in series [4] is given as “Not Active”. Also, the Ki entry (at Cytochrome P450 2E1; in series [1]) was “Not Active” in each case.

In the case of `O=C(CCCN1CC=C(n2c(=O)[nH]c3ccccc32)CC1)c1ccc(F)cc1` [DROPERIDOL], the half-maximal inhibitory concentration (IC50) result was “Not Active” against Melanocortin receptor 3; “Not Active” on Cytochrome P450 2E1; “Not Active” in series [1]; 18 nM in series [2] (read-out: IC50); “Not Active” in series [3] (hela); “Not Active” on Thromboxane-A synthase (platelet). The IC50 entry in series [4] is reported as “Not Active”. The Ki result on Cytochrome P450 2E1 was “Not Active”; in series [1], “Not Active”; in series [2] it was 9.78 nM.
